For assay [1], the target named is Mu-type opioid receptor (Homo sapiens) (UniProt P35372). Description: Inhibition of mu opioid receptor at 10 uM by NIMH PDSP.
In assay [2] the target is 5-hydroxytryptamine receptor 1E (Homo sapiens) (UniProt P28566). Description: Inhibition of 5-HT1E receptor at 10 uM by NIMH PDSP.
Assay [3] addresses D(2) dopamine receptor (Homo sapiens) (UniProt P14416). Briefly: Inhibition of D2 dopamine receptor at 10 uM by NIMH PDSP.
In assay [4] the target is 5-hydroxytryptamine receptor 6 (Homo sapiens) (UniProt P50406). Description: Inhibition of 5-HT6 receptor at 10 uM by NIMH PDSP.
The target of assay [5] is Sigma non-opioid intracellular receptor 1 (Cavia porcellus, UniProt Q60492). Description: Displacement of [3H](+)-pentazocine from sigma 1 receptor in guinea pig brain homogenates after 90 mins by scintillation counting. It counts as tissue-based. Background: In a radioligand displacement assay an active substance lowers the binding of a labelled ligand.
Chain of Sigma non-opioid intracellular receptor 1 (Q60492 whole entry): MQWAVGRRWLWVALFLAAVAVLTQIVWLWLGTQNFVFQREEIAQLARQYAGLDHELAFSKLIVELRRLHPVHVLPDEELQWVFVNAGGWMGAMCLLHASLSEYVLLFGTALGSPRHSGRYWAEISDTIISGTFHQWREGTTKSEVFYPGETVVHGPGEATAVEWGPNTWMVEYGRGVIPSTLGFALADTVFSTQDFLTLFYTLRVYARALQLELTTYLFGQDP
Assay [6] concerns the target T1, Muscarinic acetylcholine receptor M1 (Homo sapiens) (UniProt P11229).
T1 sequence (whole entry): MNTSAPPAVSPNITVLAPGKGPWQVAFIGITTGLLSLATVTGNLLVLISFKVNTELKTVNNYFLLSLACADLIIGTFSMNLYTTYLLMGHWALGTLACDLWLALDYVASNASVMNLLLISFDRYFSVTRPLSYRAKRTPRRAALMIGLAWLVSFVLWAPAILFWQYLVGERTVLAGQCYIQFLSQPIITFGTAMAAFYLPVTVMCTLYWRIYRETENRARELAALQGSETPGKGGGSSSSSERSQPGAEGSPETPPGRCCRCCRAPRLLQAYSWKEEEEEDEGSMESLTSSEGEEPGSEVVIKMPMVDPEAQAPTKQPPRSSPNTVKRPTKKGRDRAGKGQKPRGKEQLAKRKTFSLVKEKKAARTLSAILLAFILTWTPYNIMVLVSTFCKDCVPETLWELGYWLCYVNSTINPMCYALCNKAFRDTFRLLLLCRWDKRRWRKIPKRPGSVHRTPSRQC
Briefly: Inhibition of M1 muscarinic receptor at 10 uM by NIMH PDSP.

For assay [7], the target named is T2, 5-hydroxytryptamine receptor 3A (Homo sapiens) (UniProt P46098).
T2 sequence (whole entry): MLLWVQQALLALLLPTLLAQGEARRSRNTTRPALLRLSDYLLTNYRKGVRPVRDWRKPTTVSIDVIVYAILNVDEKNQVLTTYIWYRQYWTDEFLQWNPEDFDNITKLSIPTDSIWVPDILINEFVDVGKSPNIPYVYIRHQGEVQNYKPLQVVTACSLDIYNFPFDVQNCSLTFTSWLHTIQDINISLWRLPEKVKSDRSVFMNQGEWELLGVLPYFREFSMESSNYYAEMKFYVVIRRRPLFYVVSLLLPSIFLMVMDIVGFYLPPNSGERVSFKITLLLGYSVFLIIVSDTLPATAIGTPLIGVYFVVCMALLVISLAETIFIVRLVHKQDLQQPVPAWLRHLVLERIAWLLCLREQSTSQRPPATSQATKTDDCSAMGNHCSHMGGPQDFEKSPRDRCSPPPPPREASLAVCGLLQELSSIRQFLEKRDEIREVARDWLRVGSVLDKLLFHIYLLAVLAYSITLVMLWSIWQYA
Description: Inhibition of 5-HT3 receptor at 10 uM by NIMH PDSP.

Assay [8] has as its target Beta-2 adrenergic receptor (Homo sapiens) (UniProt P07550). Description: Inhibition of beta-2 adrenergic receptor at 10 uM by NIMH PDSP.
In assay [9] the target is 5-hydroxytryptamine receptor 5A (Homo sapiens) (UniProt P47898). Description: Inhibition of 5-HT5A receptor at 10 uM by NIMH PDSP.
Chain of 5-hydroxytryptamine receptor 5A (Homo sapiens) (P47898 whole entry): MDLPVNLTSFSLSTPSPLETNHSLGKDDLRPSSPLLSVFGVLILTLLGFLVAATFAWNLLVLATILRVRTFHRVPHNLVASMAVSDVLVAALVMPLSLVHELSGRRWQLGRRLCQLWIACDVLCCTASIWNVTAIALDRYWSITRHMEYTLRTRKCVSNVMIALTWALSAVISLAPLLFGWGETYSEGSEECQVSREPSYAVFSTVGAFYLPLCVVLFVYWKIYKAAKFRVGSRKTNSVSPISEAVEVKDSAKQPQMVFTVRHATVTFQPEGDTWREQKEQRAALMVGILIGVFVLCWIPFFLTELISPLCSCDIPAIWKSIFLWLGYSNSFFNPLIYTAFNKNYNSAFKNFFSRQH
The target of assay [10] is T3, Alpha-2C adrenergic receptor (Homo sapiens) (UniProt P18825).
T3 sequence (whole entry): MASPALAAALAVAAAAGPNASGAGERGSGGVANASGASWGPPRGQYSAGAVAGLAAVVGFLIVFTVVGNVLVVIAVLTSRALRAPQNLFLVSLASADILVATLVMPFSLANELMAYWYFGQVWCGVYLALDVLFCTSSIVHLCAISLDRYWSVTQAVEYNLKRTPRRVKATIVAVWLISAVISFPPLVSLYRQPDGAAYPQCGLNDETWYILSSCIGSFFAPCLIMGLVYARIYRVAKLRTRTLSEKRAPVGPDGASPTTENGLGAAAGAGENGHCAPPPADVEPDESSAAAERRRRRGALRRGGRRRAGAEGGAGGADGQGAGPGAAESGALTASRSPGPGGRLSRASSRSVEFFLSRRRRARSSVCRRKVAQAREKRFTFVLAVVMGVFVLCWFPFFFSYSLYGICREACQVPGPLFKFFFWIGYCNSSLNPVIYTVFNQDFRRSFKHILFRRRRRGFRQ
Briefly: Inhibition of alpha-2C adrenergic receptor at 10 uM by NIMH PDSP.

The target of assay [11] is Histamine H1 receptor (Homo sapiens, UniProt P35367). Description: Inhibition of H1 receptor by NIMH PDSP.
Chain of Histamine H1 receptor (P35367 whole entry): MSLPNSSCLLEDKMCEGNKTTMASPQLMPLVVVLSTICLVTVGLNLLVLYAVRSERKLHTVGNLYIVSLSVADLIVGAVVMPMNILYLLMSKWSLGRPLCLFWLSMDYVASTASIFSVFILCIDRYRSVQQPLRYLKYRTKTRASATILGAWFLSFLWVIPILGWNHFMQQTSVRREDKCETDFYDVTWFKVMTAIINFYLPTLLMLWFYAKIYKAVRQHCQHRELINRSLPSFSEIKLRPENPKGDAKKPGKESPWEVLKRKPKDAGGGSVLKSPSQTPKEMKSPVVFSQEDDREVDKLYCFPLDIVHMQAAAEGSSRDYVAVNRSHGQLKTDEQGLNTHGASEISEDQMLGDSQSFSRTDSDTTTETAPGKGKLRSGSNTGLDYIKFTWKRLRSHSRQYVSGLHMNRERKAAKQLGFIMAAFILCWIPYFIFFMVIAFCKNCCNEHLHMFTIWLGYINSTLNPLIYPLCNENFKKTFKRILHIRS
The target of assay [12] is Sodium-dependent serotonin transporter (Homo sapiens) (UniProt P31645). Briefly: Inhibition of SERT at 10 uM by NIMH PDSP.
The target of assay [13] is Muscarinic acetylcholine receptor M3 (Homo sapiens) (UniProt P20309). Description: Inhibition of M3 muscarinic receptor at 10 uM by NIMH PDSP.
Chain of Muscarinic acetylcholine receptor M3 (Homo sapiens) (P20309 whole entry, looked up): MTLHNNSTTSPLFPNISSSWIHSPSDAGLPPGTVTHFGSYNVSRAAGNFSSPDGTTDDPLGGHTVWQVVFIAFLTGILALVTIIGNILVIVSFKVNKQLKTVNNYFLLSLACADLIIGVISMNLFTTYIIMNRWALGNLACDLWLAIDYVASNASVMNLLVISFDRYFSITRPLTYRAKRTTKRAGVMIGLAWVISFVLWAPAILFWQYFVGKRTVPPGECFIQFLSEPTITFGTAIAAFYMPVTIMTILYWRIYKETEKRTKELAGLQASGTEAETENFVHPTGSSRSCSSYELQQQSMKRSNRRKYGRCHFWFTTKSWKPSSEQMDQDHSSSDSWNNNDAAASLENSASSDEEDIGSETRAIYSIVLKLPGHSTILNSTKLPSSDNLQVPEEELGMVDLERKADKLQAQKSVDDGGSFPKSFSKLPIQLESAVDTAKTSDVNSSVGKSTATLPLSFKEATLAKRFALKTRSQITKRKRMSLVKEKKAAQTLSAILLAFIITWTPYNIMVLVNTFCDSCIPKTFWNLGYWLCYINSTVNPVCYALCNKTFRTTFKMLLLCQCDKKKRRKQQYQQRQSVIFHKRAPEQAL
For assay [14], the target named is Beta-3 adrenergic receptor (Homo sapiens) (UniProt P13945). Description: Inhibition of beta-3 adrenergic receptor at 10 uM by NIMH PDSP.
Chain of Beta-3 adrenergic receptor (Homo sapiens) (P13945 whole entry, looked up): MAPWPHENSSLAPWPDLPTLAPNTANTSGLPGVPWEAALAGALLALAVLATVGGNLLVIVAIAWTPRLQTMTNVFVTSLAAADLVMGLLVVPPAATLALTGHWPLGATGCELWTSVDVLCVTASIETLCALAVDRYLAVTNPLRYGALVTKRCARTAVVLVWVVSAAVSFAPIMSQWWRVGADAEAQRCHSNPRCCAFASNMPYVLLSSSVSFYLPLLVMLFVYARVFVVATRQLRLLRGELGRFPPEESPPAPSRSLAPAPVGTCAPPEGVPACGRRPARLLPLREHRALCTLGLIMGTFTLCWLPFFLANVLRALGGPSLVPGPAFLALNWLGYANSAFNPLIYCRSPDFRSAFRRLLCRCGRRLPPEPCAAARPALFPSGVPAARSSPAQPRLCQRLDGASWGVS
The target of assay [15] is Histamine H4 receptor (Homo sapiens) (UniProt Q9H3N8). Briefly: Inhibition of H4 receptor at 10 uM by NIMH PDSP.
Chain of Histamine H4 receptor (Homo sapiens) (Q9H3N8 whole entry): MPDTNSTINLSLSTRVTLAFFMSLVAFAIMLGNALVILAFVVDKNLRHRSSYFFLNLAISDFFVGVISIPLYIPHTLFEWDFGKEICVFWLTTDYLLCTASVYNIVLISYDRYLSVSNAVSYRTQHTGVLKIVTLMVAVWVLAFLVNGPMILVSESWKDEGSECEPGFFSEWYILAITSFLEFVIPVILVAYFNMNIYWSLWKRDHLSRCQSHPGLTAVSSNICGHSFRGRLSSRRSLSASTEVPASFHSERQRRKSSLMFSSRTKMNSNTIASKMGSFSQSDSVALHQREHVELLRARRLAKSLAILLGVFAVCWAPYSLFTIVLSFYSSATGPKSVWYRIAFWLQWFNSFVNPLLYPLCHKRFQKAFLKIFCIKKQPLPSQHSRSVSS
Assay [16] concerns the target T4, Alpha-1A adrenergic receptor (Homo sapiens) (UniProt P35348).
T4 sequence (whole entry): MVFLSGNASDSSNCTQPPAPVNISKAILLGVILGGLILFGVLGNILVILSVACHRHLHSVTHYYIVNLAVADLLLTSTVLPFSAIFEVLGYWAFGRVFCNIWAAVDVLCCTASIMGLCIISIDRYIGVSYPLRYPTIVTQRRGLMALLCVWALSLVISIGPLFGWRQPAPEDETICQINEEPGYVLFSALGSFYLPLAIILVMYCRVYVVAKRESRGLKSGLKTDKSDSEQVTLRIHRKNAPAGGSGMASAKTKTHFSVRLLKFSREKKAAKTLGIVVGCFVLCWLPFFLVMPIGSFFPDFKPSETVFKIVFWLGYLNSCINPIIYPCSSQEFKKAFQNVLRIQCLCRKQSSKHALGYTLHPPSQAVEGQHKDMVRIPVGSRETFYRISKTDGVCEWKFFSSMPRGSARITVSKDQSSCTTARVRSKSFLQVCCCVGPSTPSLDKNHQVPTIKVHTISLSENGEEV
Briefly: Inhibition of alpha-1A adrenergic receptor at 10 uM by NIMH PDSP.

The nature of assay [17]: Inhibition of GABAA receptor at 10 uM by NIMH PDSP.
The target in assay [18] is Sodium-dependent noradrenaline transporter (Homo sapiens, UniProt P23975). Briefly: Inhibition of NET transporter by NIMH PDSP.
Chain of Sodium-dependent noradrenaline transporter (P23975 whole entry): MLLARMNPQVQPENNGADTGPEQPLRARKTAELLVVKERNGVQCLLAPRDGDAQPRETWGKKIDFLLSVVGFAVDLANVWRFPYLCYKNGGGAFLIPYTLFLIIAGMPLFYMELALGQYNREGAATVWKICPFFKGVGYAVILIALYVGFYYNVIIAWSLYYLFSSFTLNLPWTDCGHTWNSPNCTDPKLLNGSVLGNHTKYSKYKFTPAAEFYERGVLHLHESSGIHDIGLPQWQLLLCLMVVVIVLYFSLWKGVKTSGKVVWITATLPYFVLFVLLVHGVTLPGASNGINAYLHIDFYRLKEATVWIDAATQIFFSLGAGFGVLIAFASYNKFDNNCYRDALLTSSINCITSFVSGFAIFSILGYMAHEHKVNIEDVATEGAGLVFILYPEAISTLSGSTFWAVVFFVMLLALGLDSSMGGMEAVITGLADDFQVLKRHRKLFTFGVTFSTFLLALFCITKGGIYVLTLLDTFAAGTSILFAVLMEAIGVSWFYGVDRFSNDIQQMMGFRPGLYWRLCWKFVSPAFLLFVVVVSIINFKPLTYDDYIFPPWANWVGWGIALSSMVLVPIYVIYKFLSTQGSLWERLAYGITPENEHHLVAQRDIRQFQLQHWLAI

Chain of D(2) dopamine receptor (Homo sapiens) (P14416 whole entry): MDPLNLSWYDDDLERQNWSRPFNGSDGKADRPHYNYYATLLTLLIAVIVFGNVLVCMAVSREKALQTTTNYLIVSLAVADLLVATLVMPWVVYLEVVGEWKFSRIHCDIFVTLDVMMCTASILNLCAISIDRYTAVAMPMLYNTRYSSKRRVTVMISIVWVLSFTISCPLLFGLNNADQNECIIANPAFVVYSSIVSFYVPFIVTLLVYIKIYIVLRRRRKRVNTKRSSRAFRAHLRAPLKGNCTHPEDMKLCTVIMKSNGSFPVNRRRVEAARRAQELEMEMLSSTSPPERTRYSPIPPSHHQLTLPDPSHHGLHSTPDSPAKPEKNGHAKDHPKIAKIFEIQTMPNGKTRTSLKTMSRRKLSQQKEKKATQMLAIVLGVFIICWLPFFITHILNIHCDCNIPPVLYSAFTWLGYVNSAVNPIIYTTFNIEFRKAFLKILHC
Chain of Beta-2 adrenergic receptor (Homo sapiens) (P07550 whole entry, looked up): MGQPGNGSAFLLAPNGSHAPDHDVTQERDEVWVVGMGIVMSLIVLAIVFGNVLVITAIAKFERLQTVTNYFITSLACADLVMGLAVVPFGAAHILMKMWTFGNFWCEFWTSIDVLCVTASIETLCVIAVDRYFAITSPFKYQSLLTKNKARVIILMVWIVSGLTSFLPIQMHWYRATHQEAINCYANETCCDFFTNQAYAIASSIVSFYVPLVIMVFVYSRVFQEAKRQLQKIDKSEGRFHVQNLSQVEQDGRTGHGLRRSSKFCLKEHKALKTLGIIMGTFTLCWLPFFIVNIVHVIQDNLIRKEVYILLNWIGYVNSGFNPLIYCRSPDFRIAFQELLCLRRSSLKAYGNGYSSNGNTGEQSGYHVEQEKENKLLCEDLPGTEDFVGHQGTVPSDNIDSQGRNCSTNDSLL
Chain of 5-hydroxytryptamine receptor 1E (Homo sapiens) (P28566 whole entry): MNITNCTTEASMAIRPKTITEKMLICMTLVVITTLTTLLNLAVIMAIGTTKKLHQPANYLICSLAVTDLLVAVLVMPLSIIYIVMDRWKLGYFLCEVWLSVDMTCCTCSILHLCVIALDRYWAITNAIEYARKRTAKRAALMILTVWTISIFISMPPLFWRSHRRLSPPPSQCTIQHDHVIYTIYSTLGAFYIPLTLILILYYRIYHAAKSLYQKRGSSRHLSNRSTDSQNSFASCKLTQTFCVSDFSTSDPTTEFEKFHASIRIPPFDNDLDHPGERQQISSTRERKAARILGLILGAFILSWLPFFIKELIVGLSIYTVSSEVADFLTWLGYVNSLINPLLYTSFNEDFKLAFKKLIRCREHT
Chain of Mu-type opioid receptor (Homo sapiens) (P35372 whole entry): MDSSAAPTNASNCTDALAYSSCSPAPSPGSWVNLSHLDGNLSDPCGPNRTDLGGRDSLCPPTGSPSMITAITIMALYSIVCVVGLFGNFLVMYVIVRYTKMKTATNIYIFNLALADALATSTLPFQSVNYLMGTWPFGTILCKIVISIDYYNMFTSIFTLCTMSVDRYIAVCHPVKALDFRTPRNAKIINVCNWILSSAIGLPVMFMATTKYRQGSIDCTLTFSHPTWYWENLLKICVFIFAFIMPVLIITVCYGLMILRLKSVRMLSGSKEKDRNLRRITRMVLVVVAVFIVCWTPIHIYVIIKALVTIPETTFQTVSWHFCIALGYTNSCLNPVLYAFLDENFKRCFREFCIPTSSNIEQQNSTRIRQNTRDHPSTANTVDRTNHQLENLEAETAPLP

On to `OC12CC3CC(CC(C3)N1Cc1ccccc1)C2` (racemic), for which the inhibition in assay [1], in assay [2], in [3], in assay [4], in [6] and in assay [7] was less than 50% in each case. The inhibition in [8], in assay [9], in [10], in assay [12], in assay [13] and in [14] was less than 50% in each case. Further, the inhibition in [15], in [16] and in [17] was less than 50% throughout. Also, the Ki in [5] was 1450 nM; in assay [11] it was less than 10000 nM.

For `c1ccc(CN2C3CC4CC(C3)CC2C4)cc1`, the inhibition in assay [1], in assay [2], in assay [3], in [4], in [6] and in assay [7] was less than 50% each time. The inhibition in assay [8], in [9], in [10], in assay [12], in assay [13] and in assay [14] was less than 50% each time. Also, the inhibition in assay [15], in assay [16] and in assay [17] was less than 50% in each case. Also, the Ki in assay [5] is 29 nM; in [18] it was greater than 10000 nM; in [11], less than 10000 nM.

Consider `Fc1cccc(CN2C3CC4CC(C3)CC2C4)c1`, for which the inhibition in assay [1], in [2], in assay [3], in assay [4], in assay [6] and in assay [7] was less than 50% throughout. Also, the inhibition in assay [8], in assay [9], in [10], in [12], in assay [13] and in assay [14] was less than 50% in each case. In addition, the inhibition in assay [15] and in [17] was less than 50% in each case. Besides, the values for the Ki in [5], in [18] and in assay [11] were 22 nM, greater than 10000 nM and less than 10000 nM, respectively.

Consider `OC12CC3CC(CC(C3)N1Cc1cccc(F)c1)C2` (racemic), for which the inhibition in assay [1], in [2], in assay [3], in [4], in assay [6] and in [7] was less than 50% in each case. Besides, the inhibition in assay [8], in [9], in [10], in assay [12], in assay [13] and in [14] was less than 50% in each case. Also, the inhibition in assay [15], in assay [16] and in [17] was less than 50% throughout. Besides, the Ki in assay [5] is 862 nM; in assay [18] it was greater than 10000 nM; in assay [11] it was less than 10000 nM.

One may read the inhibition as how much of the control response was suppressed. The Ki is a dissociation constant, usually derived from enzyme kinetics or from competition with a known ligand. Low values mean tighter binding, high ones weaker binding.

The record behind these values is ChEMBL document CHEMBL1821607, “N-Arylalkyl-2-azaadamantanes as cage-expanded polycarbocyclic sigma (σ) receptor ligands” (Bioorg Med Chem Lett, 2011).
